What is called inhibition is the change of the read-out against control, counted positive when it falls.

The text below walks through data of patent US5922713A, “Inhibition of nitric oxide synthase” (priority 1997, dated 1999).

In one data set the test system is Sprague-Dawley rats. Description: in vivo toxicity test, intraperitoneal injection in Sprague-Dawley rats. The note with it: 10 mg, rats 240-250 g body weight. The procedure: (§1) The therapeutic use of C1' aminobiopterin is facilitated by its low toxicity, both in vitro and in vivo. A useful in vitro toxicity screen which is predictive of in vivo response was to use cultured 3T3 murine fibroblasts. […] In an in vivo test, intraperitoneal injection of a solution containing 10 mg of tetrahydroaminobiopterin (I) dihydrochloride caused no toxicity in Sprague-Dawley rats (240-250 g body weight).

The target of data set [1] is rat neuronal nitric oxide synthase (Rattus norvegicus, UniProt P29476). As to the kind of experiment: binding of tritiated tetrahydroaminobiopterin (Klatt et al.), affinity for rat neuronal nitric oxide synthase. To be noted: vs naturally occurring cofactor tetrahydrobiopterin. The procedure:
These determinations are assayed with binding of tritiated tetrahydroaminobiopterin according to the method of Klatt et al., "The pteridine binding site of brain nitric oxide synthase," J.Biol.Chem., 269:13861-13866 (1994), the teachings of which are incorporated herein by reference.

The target of data set [2] is inducible murine nitric oxide synthase (Mus musculus, UniProt P29477). As to the kind of experiment: binding of tritiated tetrahydroaminobiopterin (Klatt et al.), affinity for inducible murine nitric oxide synthase. The note with it: vs naturally occurring cofactor tetrahydrobiopterin.
In data set [3] the target is T1, recombinant rat neuronal NO synthase (Rattus norvegicus, UniProt P29476).
T1 construct: made in house
Description: NO synthase activity, formation of tritiated citrulline from tritiated L-arginine (rat neuronal). Type of data set: biochemical. The procedure: (§2) It has been discovered that C1' tetrahydroaminobiopterin inhibits the stimulation of NOSs by 10 μM tetrahydrobiopterin with an IC50 (50% inhibitory concentration) of 1 μM (rat neuronal NOS), or 7 μM (murine inducible NOS) as assayed by formation of tritiated citrulline from tritiated L-arginine according to Mayer, et al., "Molecular mechanisms of inhibition of porcine brain nitric oxide synthase by the antinociceptive drug 7-nitro-indazole," Neuropharmacology, 33:1253-1259 (1994), the teachings of which are incorporated herein by reference. In tissue culture tetrahydroaminobiopterin (I) reduced the formation of nitrites (a breakdown product of nitric oxide) when formation was triggered in murine NIH-3T3 by treatment with a combination of murine interferon-y (250 U/ml) and lipopolysaccharide (1 μg/ml) ("LPS"). […] In one embodiment, rat liver phenylalanine-4-hydroxylase was inhibited by 1 mM tetrahydroaminobiopterin only 30% irrespective of the tetrahydroaminobiopterin concentrations used (3-300 μM). IC50 of tetrahydroaminobiopterin (I) for sheep liver dihydropterin reductase is 20 μM, again irrespective of the tetrahydroaminobiopterin concentrations used.
NO synthase activity: NO synthase activity was measured as the formation of [2,3,4,5-^3 H]citrulline from L-[2,3,4,5-^3 H]arginine. This was conducted by the method of Mayer, et al., "Molecular mechanisms of inhibition of porcine brain nitric oxide synthase by the antinociceptive drug 7-nitro-indazole," Neuropharmacology, 33:1253-1259 (1994). Incubation mixtures (0.1 ml) contain 50 mM triethanolamine/HCl buffer, pH 7.0, 0.1 μg purified recombinant rat neuronal NO synthase (tetrahydrobiopterin-free, prepared according to the teachings of List et al., Biochem. J., 315:57-63 (1996)), the teachings of which are incorporated herein by reference., 0.1 mM L-2,3,4,5-^3 H]arginine (approx 6000 counts per minute). 0.5 mM CaCl2, 10 μg/ml calmodulin, 0.2 mM NADPH ([…], reduced form), 10 μM 6R-tetrahydrobiopterin, 0-1000 μM NO synthase inhibitor, 5 μM flavin adenine dinucleotide("FAD"), 5 μM flavin mononucleotide ("FMN"), and 0.2 mM 3-[3-chloramidopropyl)dimethylamonio]-1-propanesulfonate ("CHAPS"). After incubation for 10 minutes at 37° C., the reaction is stopped by the addition of 0.9 ml 20 mM sodium acetate buffer, pH 5.5, containing 1 mM L-citrulline. The mixture is then applied to ion exchange resin columns (Dowex AG50W-XB, Dow Chemical, Midland, Mich.), the eluate and 1 ml water for washing the column are collected. Next, 7 ml scintillation cocktail are added and the radioactivity is determined. The radioactivity detected by scintillation corresponds to the amount of L-citrulline formed in the NO synthase reaction.

The target in another data set is murine inducible NOS (Mus musculus, UniProt P29477). Description: NO synthase activity, formation of tritiated citrulline from tritiated L-arginine (murine inducible). Type of data set: biochemical. The note with it: 10 μM tetrahydrobiopterin, read-out: IC50 (50% inhibitory concentration), inhibition of stimulation of NOSs by tetrahydrobiopterin. The procedure: as §2

In the next data set the test system is murine NIH-3T3. As to the kind of experiment: formation of nitrites triggered in murine NIH-3T3 by interferon-γ (250 U/ml) and LPS. In kind it is cell-based. The procedure:
as §2

In data set [4] the test system is cultivated porcine endothelial cells. Description: NOS inhibition in cultivated porcine endothelial cells. Type of data set: cell-based. The note with it: Sus scrofa, Endothelial cell, read-out: IC50, inhibitory effect on NOS.
Data set [5] relates to rat liver phenylalanine-4-hydroxylase. Description: inhibition of rat liver phenylalanine-4-hydroxylase. Type of data set: biochemical. To be noted: 1 mM; irrespective of the tetrahydroaminobiopterin concentrations used (3-300 μM). The procedure:
as §2

The next data set deals with 3T3 murine fibroblasts. As to the kind of experiment: in vitro toxicity screen in cultured 3T3 murine fibroblasts. The note with it: 250 μM, up to 48 hours. Type of data set: cell-based. The procedure:
as §1

The subject of the next data set is murine 3T3 fibroblasts. As to the kind of experiment: nitrite formation by interferon-γ/LPS stimulated murine 3T3 fibroblasts (Example 2). In kind it is cell-based. The note with it: for inhibition at 7.8 µM: conc. 7.8 μM; for inhibition at 7.8 µM / inhibition at 15.6 µM / inhibition at 31.2 µM / inhibition at 62.5 µM: 48 hours; for inhibition at 15.6 µM: conc. 15.6 μM; for inhibition at 31.2 µM: conc. 31.2 μM; for inhibition at 62.5 µM: conc. 62.5 μM. The procedure:
Nitric oxide synthase is induced in 3T3 fibroblasts from mice (1×10^5 /ml) by a mixture of LPS (055:b5 from E. coli.), 1 μg/ml) and murine interferon-γ (50 U/ml). The cells were cultured with and without inhibitors for 48 hours, and nitrite was determined in culture supernatants as a measure of NO formation by the cells. The ratio of nitrite to nitrate, the second product of decomposition of NO, remains constant by treatment with the inhibitor. Nitrite determination was carried out using the Greiss Ilosvay's reagent, which was mixed with an equal volume of culture supernatant and the amount of dye formed was measured by UV absorption at 550 nm in a microplate reader.

A further data set has as its system NOSs. Description: specificity for NOSs. In kind it is biochemical. The procedure:
as §2

The mark [6] stands for this setting: conc. 0.01 μM, 10 μM 6R-tetrahydrobiopterin.
Setting [7] is: conc. 0.1 μM, 10 μM 6R-tetrahydrobiopterin.
Setting [8] is: conc. 1.0 μM, 10 μM 6R-tetrahydrobiopterin.
The mark [9] stands for this setting: conc. 3.0 μM, 10 μM 6R-tetrahydrobiopterin.
Where [10] appears, read: conc. 10 μM, 10 μM 6R-tetrahydrobiopterin.
The mark [11] stands for this setting: conc. 30 μM, 10 μM 6R-tetrahydrobiopterin.
The mark [12] stands for this setting: conc. 100 μM, 10 μM 6R-tetrahydrobiopterin.
Where [13] appears, read: conc. 1000 μM, 10 μM 6R-tetrahydrobiopterin.

Sequence of rat neuronal nitric oxide synthase (P29476 whole entry): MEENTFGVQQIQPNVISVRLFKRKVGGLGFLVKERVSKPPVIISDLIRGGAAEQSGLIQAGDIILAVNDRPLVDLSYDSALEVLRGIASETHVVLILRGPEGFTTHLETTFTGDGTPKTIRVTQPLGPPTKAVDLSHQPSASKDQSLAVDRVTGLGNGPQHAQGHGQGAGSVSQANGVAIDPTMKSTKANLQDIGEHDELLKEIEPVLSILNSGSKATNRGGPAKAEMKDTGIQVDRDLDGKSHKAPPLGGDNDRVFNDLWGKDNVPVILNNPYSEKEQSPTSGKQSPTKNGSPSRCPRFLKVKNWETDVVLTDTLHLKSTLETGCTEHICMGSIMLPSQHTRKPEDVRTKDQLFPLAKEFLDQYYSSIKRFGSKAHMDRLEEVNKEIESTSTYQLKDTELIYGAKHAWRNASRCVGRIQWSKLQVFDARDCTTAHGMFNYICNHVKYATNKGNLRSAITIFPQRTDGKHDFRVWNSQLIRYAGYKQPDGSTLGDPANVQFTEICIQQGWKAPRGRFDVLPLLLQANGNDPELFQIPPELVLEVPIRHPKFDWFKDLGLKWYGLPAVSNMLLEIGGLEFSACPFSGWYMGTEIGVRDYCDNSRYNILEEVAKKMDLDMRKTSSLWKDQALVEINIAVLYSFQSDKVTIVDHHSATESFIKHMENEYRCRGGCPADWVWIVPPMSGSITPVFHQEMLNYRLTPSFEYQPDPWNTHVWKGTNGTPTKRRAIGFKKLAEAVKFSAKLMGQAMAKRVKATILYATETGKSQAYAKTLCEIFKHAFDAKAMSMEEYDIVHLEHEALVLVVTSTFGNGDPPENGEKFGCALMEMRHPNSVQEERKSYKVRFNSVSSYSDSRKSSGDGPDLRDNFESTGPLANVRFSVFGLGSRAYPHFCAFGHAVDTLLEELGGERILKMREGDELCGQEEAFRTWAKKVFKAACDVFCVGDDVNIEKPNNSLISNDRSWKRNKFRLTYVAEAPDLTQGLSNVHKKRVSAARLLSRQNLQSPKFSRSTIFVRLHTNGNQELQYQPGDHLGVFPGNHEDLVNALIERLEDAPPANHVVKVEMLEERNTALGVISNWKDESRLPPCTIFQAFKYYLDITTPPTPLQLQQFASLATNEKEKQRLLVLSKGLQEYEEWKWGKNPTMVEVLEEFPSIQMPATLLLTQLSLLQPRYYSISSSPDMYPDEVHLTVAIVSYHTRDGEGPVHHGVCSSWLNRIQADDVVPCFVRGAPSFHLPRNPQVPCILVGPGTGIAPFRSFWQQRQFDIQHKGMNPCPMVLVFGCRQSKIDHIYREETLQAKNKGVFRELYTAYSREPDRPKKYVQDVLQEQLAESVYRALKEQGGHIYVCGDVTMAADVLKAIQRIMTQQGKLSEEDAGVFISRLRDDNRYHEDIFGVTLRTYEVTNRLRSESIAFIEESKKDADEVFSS

With `C[C@H](O)[C@H](O)C1CNc2nc(N)nc(N)c2N1` (stereo partly drawn), in the data set with Sprague-Dawley rats, the toxicity in vivo result is on record as “no toxicity”.
Regarding `C[C@H](O)[C@H](O)C1CNc2nc(N)nc(N)c2N1` (stereo partly drawn) [(I), 2,4-diamino-5,6,7,8-tetrahydro-6-(L-erythro-1,2-dihydroxylpropyl)pteridine], the figures for the “affinity for nitric oxide synthase relative to tetrahydrobiopterin (fold higher)” value in data set [1] and in data set [2] were “about 20 -fold” and “about 2.5 -fold”, respectively. The IC50 is 1 µM in [3] (10 μM tetrahydrobiopterin, rat neuronal NOS, read-out: IC50 (50% inhibitory concentration), inhibition of stimulation of NOSs by tetrahydrobiopterin); 7 µM on murine inducible NOS; 13 µM in the data set on murine NIH-3T3 (Mus musculus, NIH3T3, murine interferon-γ (250 U/ml) and LPS (1 μg/ml)); 100 µM in data set [4]. Besides, the NO synthase activity in [3] (setting [6]) was found to be 279 nmol/mg/min; in data set [3] (setting [7]) it was 262 nmol/mg/min; in data set [3] (setting [8]) it was 181 nmol/mg/min; in data set [3] (setting [9]), 125 nmol/mg/min; in data set [3] (setting [10]) it was 72 nmol/mg/min; in data set [3] (setting [11]), 50 nmol/mg/min. The NO synthase activity is 35 nmol/mg/min in [3] (setting [12]) and 24 nmol/mg/min in data set [3] (setting [13]). Moreover, the inhibition at 3 µM in data set [3] (setting [9]) came out at 58%. In addition, the inhibition at 30 µM in data set [3] (setting [11]) worked out at 83%. In addition, the cellular toxicity entry with murine NIH-3T3 (murine NIH-3T3, nitrite formation test) was “without apparent cellular toxicity”. In data set [5], the “inhibition of phenylalanine-4-hydroxylase” value is on record as 30%. For the same molecule, the cytotoxicity result in the data set with 3T3 murine fibroblasts was “no cytotoxicity”. Further, in the data set with murine 3T3 fibroblasts (Mus musculus, Fibroblast, 7.5 μM), 7.5 µM produced 44% inhibition. Moreover, at 7.8 µM the inhibition with murine 3T3 fibroblasts (Mus musculus, Fibroblast) was 44%. In addition, 15.6 µM produced 65% inhibition with murine 3T3 fibroblasts (Mus musculus, Fibroblast). The inhibition at 31.2 µM in the data set on murine 3T3 fibroblasts (Mus musculus, Fibroblast) was determined as 77%. The molecule further displayed an inhibition at 62.5 µM in the data set on murine 3T3 fibroblasts (Mus musculus, Fibroblast) of 88%. Moreover, the “NO synthase inhibitor potency compared with (III)” value in the data set on murine 3T3 fibroblasts (compared with (III)) is recorded as “more potent NO synthase inhibitor”. In the data set with NOSs, the “specificity for NOSs” value is “highly specific for NOSs”.
For the molecule `Nc1nc(N)c2c(n1)NCC(CO)N2` (stereo not drawn) [(III), 2,4-diamino-5,6,7,8-tetrahydro-6-hydroxymethyl pteridine, reference compound], in data set [3] (setting [6]), the NO synthase activity is listed as 325 nmol/mg/min and the inhibition at 0.01 µM was determined as 3%. In addition, in data set [3] (setting [7]), the NO synthase activity turned out to be 318 nmol/mg/min and the inhibition at 0.1 µM came out at 5%. In [3] (setting [8]), the NO synthase activity turned out to be 306 nmol/mg/min and the inhibition at 1 µM is 8%. Besides, in data set [3] (setting [9]), the NO synthase activity amounted to 304 nmol/mg/min and the inhibition at 3 µM came to 9%. In data set [3] (setting [10]), the NO synthase activity is 316 nmol/mg/min and the inhibition at 10 µM came to 5%. Moreover, in data set [3] (setting [11]), the NO synthase activity turned out to be 319 nmol/mg/min and the inhibition at 30 µM amounted to 4%. Moreover, in data set [3] (setting [12]), the NO synthase activity amounted to 274 nmol/mg/min and the inhibition at 100 µM was 18%. For the same molecule, in data set [3] (setting [13]), the NO synthase activity was determined as 136 nmol/mg/min and the inhibition at 1000 µM came to 60%. Moreover, the activity in words result in the data set on murine 3T3 fibroblasts (7.5 μM) is “no activity”. In the data set on murine 3T3 fibroblasts (Mus musculus, Fibroblast), this molecule gave an inhibition at 7.8 µM of 0%, an inhibition at 15.6 µM of 8%, an inhibition at 31.2 µM of 16% and an inhibition at 62.5 µM of 50%.
For `C[C@H](O)[C@H](O)C1=Nc2c(N)nc(N)nc2NC1` [(IV), 2,4-diamino-7,8-dihydro-6-(L-erythro-1,2-dihydroxylpropyl)pteridine], the “affinity for nitric oxide synthase relative to tetrahydrobiopterin (fold higher)” value in [1] was “about 20 -fold”; in data set [2] it was “about 2.5 -fold”. Further, the NO synthase activity in data set [3] (setting [6]) is reported as 294 nmol/mg/min; in data set [3] (setting [7]), 283 nmol/mg/min; in [3] (setting [8]), 242 nmol/mg/min; in data set [3] (setting [10]), 110 nmol/mg/min; in data set [3] (setting [12]), 48 nmol/mg/min; in [3] (setting [13]), 25 nmol/mg/min. Besides, in data set [3] (setting [12]), the inhibition at 100 µM is 82%.
